Values of other authors, collected in patent US11268059B2, “Apparatuses, systems, and methods for culturing cells” (eXo Cell, LLC, priority 2015, dated 2022).

Experiments:
[1] = tested on: ex vivo human adipocytes; details: Ang II stimulation
[2] = tested on: isolated adipocytes and differentiated adipocytes (diffAds)
[3] = tested on: obese human males
[4] = tested on: obese, diabetic yellow KK mice
[5] = tested on: BAT; details: humans

Molecule: angiotensin II (DRVYIHPF; Angiotensin-2; UniProt P01019 25-32, looked up) [Ang II, angiotensin II, component of the renin-angiotensin system]
- lipolysis [1]: inhibited lipolysis
- adipogenesis [2]: may induce adipogenesis

Molecule: O=S(=O)(Nc1ccc(CCNC[C@H](O)c2cccnc2)cc1)c1ccc(-c2nc(-c3ccc(C(F)(F)F)cc3)cs2)cc1 [L-796568]
- anti-obesity effects [3]: did not generate notable anti-obesity effects
- energy expenditure [3]: improved energy expenditure

Molecule: C[C@H](Cc1ccc2c(c1)OC(C(=O)[O-])(C(=O)[O-])O2)NC[C@H](O)c1cccc(Cl)c1.[Na+].[Na+] [CL-316243]
- effect on obesity [4]: ameliorated obesity

Molecule: Nc1nc(CC(=O)Nc2ccc(CCNC[C@H](O)c3ccccc3)cc2)cs1 [migrabegron]
- BAT activation [5]: activates BAT
